Reference: PubChem BioAssay (NCI)
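Test compounds were applied to cells in 96-well plates for 48 hours at 5 doses. The concentration for 50% growth inhibition is given as GI50. TGI marks complete inhibition of growth.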

Tests used:
Test in all cases: NCI tumour cell line growth inhibition, 48 h
NCI-H23 lung = system: NCI-H23 lung
U251 CNS = system: U251 CNS
NCI/ADR-RES ovarian = system: NCI/ADR-RES ovarian
SN12C renal = system: SN12C renal
TK-10 renal = system: TK-10 renal
A498 renal = system: A498 renal
NCI-H460 lung = system: NCI-H460 lung
MDA-MB-231 breast = system: MDA-MB-231 breast
OVCAR-3 ovarian = system: OVCAR-3 ovarian
NCI-H522 lung = system: NCI-H522 lung

In the case of Cn1cc(C2=C(c3cn(C)c4ccc(N)cc34)C(=O)NC2=O)c2ccccc21, the GI50 (NCI-H23 lung) is reported as 15.3 µM, the TGI (NCI-H23 lung) is reported as > 25 µM and the GI50 (U251 CNS) is reported as 8.96 µM. For the same compound, the TGI (U251 CNS) was > 25 µM, the GI50 (NCI/ADR-RES ovarian) was 10.3 µM and the TGI (NCI/ADR-RES ovarian) was > 25 µM. The GI50 (SN12C renal) was 13.4 µM, the TGI (SN12C renal) was > 25 µM and the GI50 (TK-10 renal) was 23.1 µM. For the same compound, the TGI (TK-10 renal) was > 25 µM, the GI50 (A498 renal) was 9.28 µM and the TGI (A498 renal) was > 25 µM. The GI50 (NCI-H460 lung) was 9.53 µM, the TGI (NCI-H460 lung) was > 25 µM and the GI50 (MDA-MB-231 breast) was > 25 µM. The TGI (MDA-MB-231 breast) was > 25 µM, the GI50 (OVCAR-3 ovarian) was 4.79 µM and the TGI (OVCAR-3 ovarian) was 16 µM. The GI50 (NCI-H522 lung) was 6.78 µM and the TGI (NCI-H522 lung) was > 25 µM.
For N/C(=N\OC(=O)c1ccccc1)C(C(=O)NOC(=O)c1ccccc1)C1CCCCC1 (stereo not given), the GI50 (NCI-H23 lung) was 9.28 µM, the TGI (NCI-H23 lung) was 24.1 µM and the GI50 (U251 CNS) was 1.78 µM. It also gave a TGI (U251 CNS) of 3.87 µM, a GI50 (NCI/ADR-RES ovarian) of 3.79 µM and a TGI (NCI/ADR-RES ovarian) of 16 µM. The GI50 (SN12C renal) was 13.4 µM, the TGI (SN12C renal) was 69.4 µM and the GI50 (TK-10 renal) was 12.4 µM. For the same compound, the TGI (TK-10 renal) was 26.9 µM, the GI50 (A498 renal) was 14.8 µM and the TGI (A498 renal) was 28.7 µM. For the same compound, the GI50 (NCI-H460 lung) was 2.85 µM, the TGI (NCI-H460 lung) was 9.61 µM and the GI50 (MDA-MB-231 breast) was 18.1 µM. For the same compound, the TGI (MDA-MB-231 breast) was 70.9 µM, the GI50 (OVCAR-3 ovarian) was 4.56 µM and the TGI (OVCAR-3 ovarian) was 15.9 µM. For the same compound, the GI50 (NCI-H522 lung) was 2.82 µM and the TGI (NCI-H522 lung) was 7.76 µM.
In the case of CCN(c1ccc(CO)c(Cl)c1)C(C)c1ccc(F)cc1 (stereo not given), the GI50 (NCI-H23 lung) is reported as 14 µM, the TGI (NCI-H23 lung) is reported as 30.5 µM and the GI50 (U251 CNS) is reported as 9 µM. For the same compound, the TGI (U251 CNS) was 22 µM, the GI50 (NCI/ADR-RES ovarian) was 14.5 µM and the TGI (NCI/ADR-RES ovarian) was 31.2 µM. For the same compound, the GI50 (SN12C renal) was 14.2 µM, the TGI (SN12C renal) was 28.5 µM and the GI50 (TK-10 renal) was 1.12 µM. For the same compound, the TGI (TK-10 renal) was 6.11 µM, the GI50 (A498 renal) was 0.117 µM and the TGI (A498 renal) was 0.843 µM. For the same compound, the GI50 (NCI-H460 lung) was 7.88 µM, the TGI (NCI-H460 lung) was 23.7 µM and the GI50 (MDA-MB-231 breast) was 15.3 µM. It also gave a TGI (MDA-MB-231 breast) of 30.1 µM, a GI50 (OVCAR-3 ovarian) of 13.7 µM and a TGI (OVCAR-3 ovarian) of 27.3 µM. The GI50 (NCI-H522 lung) was 12.7 µM and the TGI (NCI-H522 lung) was 26.7 µM.
COc1cc(-c2oc3ccccc3c(=O)c2O)cc(OC)c1OC was tested, and the TGI (NCI-H23 lung) was > 100 µM, the TGI (U251 CNS) was > 100 µM and the TGI (NCI/ADR-RES ovarian) was > 100 µM. For the same compound, the TGI (SN12C renal) was > 100 µM, the TGI (TK-10 renal) was > 88.5 µM and the TGI (A498 renal) was > 100 µM. For the same compound, the TGI (NCI-H460 lung) was > 100 µM, the TGI (MDA-MB-231 breast) was > 100 µM and the TGI (OVCAR-3 ovarian) was > 100 µM. For the same compound, the TGI (NCI-H522 lung) was > 80.3 µM.
O=C(O)c1cc[c]([Hg][S]c2ncnc3nc[nH]c23)cc1 was tested, and the GI50 (NCI-H23 lung) was 15.5 µM, the TGI (NCI-H23 lung) was 34.8 µM and the GI50 (U251 CNS) was 14.4 µM. For the same compound, the TGI (U251 CNS) was 28.2 µM, the GI50 (NCI/ADR-RES ovarian) was 3.75 µM and the TGI (NCI/ADR-RES ovarian) was 30.6 µM. The GI50 (SN12C renal) was 17.5 µM, the TGI (SN12C renal) was 38.6 µM and the GI50 (TK-10 renal) was 2.59 µM. For the same compound, the TGI (TK-10 renal) was 14.3 µM, the GI50 (A498 renal) was > 35.3 µM and the TGI (A498 renal) was > 87.1 µM. For the same compound, the GI50 (NCI-H460 lung) was 13.1 µM, the TGI (NCI-H460 lung) was 28.5 µM and the GI50 (MDA-MB-231 breast) was 6.59 µM. For the same compound, the TGI (MDA-MB-231 breast) was 21 µM, the GI50 (OVCAR-3 ovarian) was 1.88 µM and the TGI (OVCAR-3 ovarian) was 19.9 µM. The GI50 (NCI-H522 lung) was 1.08 µM and the TGI (NCI-H522 lung) was 8.24 µM.
